Here are results for 1 compound from US20260138970A1, “MODULATORS OF THE CALCIUM SIGNALING CASCADE” (FONDAZIONE TELETHON ETS, priority 2022, published 2026).

Molecules are shown by their SMILES.

In this test the target is ITPR1 (Homo sapiens, UniProt Q14643). The experiment in a line: On-nucleus patch-clamp single-channel recordings, HEKR1 cells expressing ITPR1-EYFP. The format is biochemical. On the set-up: EYFP; expressed in transfected cells; nuclei isolated for on-nucleus patch clamp. The following applies: 20 μM in pipette solution. As to the method: Nuclear membrane patch currents were recorded in HEKR1 cells stably transfected with a plasmid encoding human ITPR1 tagged with Enhanced Yellow Fluorescent Protein (EYFP) kindly provided by Prof. Colin W. Taylor (University of Cambridge) (17). For nuclei isolation, at least 1,000,000 HEKR1-ITPR1-EYFP cells plated in a 35 mm Petri dish were used following the protocol for patch clamp on the outer nuclear membrane (18,19). Briefly, a Duall homogenizer 20 tube (Kimble Chase 885482-0020) and a tissue grind (Kimble 885480-0020) were used. 20 strokes were applied to cells suspended in NIS-0 solution (25). NIS-O solution consisted of 40 ml of sucrose buffer (150 mM KCl, 250 mM sucrose, 1.4 mM β-mercaptoethanol, 10 mM Tris-HCl; pH 7.3 with KOH) supplemented with one tablet of complete protease inhibitor cocktail (Roche) and 200 μM PMSF.
Chain of ITPR1 (Q14643 whole entry): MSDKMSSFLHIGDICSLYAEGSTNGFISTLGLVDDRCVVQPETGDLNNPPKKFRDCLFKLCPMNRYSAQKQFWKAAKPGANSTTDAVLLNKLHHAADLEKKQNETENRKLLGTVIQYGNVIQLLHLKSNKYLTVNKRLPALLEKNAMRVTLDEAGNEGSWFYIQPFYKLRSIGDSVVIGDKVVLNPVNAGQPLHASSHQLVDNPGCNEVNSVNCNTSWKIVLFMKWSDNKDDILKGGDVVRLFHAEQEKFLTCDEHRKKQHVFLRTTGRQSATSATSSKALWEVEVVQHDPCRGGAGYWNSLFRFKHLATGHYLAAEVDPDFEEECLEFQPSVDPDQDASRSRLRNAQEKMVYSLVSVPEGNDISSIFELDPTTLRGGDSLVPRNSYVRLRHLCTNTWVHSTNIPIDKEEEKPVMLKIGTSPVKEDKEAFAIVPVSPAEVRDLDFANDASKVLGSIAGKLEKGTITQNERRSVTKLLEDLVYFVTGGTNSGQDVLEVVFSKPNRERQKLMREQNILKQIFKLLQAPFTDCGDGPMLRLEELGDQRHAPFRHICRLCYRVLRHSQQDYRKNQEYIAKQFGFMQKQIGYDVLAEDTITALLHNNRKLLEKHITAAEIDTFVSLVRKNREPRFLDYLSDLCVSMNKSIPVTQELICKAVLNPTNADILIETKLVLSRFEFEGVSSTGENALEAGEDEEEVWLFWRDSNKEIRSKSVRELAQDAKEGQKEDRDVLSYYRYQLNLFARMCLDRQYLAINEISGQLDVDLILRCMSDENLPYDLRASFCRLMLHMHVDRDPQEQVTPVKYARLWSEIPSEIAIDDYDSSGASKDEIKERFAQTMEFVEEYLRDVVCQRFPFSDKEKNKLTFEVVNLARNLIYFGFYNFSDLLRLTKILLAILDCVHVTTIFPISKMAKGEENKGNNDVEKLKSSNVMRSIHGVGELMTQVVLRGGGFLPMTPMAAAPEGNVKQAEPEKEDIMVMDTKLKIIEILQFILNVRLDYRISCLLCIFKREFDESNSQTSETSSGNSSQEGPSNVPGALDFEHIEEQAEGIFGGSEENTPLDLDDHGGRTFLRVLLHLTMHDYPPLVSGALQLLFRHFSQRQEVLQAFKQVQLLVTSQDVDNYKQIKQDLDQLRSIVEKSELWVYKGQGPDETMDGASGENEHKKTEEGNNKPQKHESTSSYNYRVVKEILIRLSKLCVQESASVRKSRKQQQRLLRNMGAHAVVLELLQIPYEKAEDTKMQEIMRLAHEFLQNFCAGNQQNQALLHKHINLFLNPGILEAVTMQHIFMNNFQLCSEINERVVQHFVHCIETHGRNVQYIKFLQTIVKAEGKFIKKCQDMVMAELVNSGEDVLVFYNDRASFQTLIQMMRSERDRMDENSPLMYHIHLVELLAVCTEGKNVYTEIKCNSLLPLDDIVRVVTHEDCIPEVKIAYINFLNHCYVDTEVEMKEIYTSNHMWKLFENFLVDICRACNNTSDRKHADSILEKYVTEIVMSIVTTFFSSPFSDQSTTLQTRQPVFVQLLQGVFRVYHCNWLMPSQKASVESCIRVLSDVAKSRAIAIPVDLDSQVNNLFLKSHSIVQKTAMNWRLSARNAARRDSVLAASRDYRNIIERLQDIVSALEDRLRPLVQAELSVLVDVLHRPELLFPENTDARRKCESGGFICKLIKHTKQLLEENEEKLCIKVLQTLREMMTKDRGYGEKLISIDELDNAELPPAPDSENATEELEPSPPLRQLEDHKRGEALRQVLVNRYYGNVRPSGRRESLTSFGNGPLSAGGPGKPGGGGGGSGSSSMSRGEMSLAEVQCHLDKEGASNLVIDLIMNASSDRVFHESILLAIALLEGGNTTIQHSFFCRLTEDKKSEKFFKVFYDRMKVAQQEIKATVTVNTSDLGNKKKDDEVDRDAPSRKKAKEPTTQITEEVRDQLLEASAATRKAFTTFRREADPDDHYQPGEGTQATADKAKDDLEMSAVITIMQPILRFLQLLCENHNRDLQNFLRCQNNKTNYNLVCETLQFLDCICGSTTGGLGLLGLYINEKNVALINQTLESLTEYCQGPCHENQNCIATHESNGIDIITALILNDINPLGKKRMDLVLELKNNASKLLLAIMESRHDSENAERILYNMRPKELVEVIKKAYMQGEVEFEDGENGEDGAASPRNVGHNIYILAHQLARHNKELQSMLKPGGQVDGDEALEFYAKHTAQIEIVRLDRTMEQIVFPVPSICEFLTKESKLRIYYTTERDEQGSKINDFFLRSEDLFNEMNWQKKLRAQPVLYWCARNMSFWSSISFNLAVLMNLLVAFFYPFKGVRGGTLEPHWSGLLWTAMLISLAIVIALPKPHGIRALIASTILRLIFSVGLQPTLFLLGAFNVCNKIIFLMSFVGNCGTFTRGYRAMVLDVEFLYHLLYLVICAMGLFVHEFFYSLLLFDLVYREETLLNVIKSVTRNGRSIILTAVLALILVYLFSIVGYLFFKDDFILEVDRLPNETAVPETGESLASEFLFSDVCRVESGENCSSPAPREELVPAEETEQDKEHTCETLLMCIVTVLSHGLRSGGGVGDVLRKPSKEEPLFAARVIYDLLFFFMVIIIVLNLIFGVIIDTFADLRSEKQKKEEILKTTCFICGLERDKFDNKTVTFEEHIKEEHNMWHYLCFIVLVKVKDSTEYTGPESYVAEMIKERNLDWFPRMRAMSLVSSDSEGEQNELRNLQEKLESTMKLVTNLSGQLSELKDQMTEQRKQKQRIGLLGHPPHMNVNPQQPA
Borosilicate glass pipettes were pulled on a two-step vertical puller (Narishige) to a final resistance of around 15-20 MO, as measured in the working solution. […]
During experiments, the membrane capacitance was analogically compensated using the circuitry provided by the EPC10 patch-clamp amplifier. […] Data were analysed using the Igor software (WaveMetrics, Lake Oswego, OR, USA) supplemented by custom software kindly provided by Dr. Oscar Moran (Institute of Biophysics, CNR, Genova, Italy).
(In general: In patch-clamp work, channel activity is measured electrically.)

As for `CCn1nc2c(c1C(=O)Nc1ccccc1OCC1CCCCO1)CCCC2` (centres unmarked) [ARN11391, 2-Ethyl-N-[2-(tetrahydropyran-2-ylmethoxy)phenyl]-4,5,6,7-tetrahydroindazole-3-carboxamide], under “Vp=+40 mV, FIG. 6A”, the “open channel probability (Po), average” value is ~0.2. For the setting “~10 pA at +40 mV”, the “attempts with single channel openings of the expected ITPR1 current amplitude” value is 5 out of 32.
